Target: HCV NS3-4A serine protease (full-length NS3-4A protein) (Hepatitis C virus genotype 1a (isolate 1) (HCV), UniProt P26664)
Assay: HCV NS3-4A protease assay
Type: biochemical, HCV genotype 1a
Conditions: strain HCV-1, fluorogenic peptide substrate, read-out: Protease assay Ex. 12 IC50
Procedure: The inhibitory activity of certain compounds of Table A against HCV NS3-4A serine protease is determined in a homogenous assay using the full-length NS3-4A protein (genotype 1a, strain HCV-1) and a commercially available internally-quenched fluorogenic peptide substrate as described by Taliani, M., et al. 1996 Anal. Biochem. 240:60-67, which is incorporated by reference in its entirety.

Chain of HCV NS3-4A serine protease (full-length NS3-4A protein) (P26664 1027-1657): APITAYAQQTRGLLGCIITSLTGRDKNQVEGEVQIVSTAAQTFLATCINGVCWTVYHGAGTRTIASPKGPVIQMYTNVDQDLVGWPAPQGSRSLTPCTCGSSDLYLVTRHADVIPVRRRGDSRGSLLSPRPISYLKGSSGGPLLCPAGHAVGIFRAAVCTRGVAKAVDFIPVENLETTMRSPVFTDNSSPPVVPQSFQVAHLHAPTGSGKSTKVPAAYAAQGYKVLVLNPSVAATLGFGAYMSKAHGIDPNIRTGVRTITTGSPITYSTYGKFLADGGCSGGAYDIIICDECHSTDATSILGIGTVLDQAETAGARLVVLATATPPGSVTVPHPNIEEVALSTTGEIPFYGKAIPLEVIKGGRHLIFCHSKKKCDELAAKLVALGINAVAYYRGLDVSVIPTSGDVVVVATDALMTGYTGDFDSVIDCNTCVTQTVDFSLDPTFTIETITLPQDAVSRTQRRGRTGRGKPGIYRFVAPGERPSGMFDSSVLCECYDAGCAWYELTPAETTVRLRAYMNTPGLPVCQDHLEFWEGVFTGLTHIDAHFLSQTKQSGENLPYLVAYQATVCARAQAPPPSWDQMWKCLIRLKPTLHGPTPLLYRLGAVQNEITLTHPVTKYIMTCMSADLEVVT
Chain of HCV NS3-4A serine protease (full-length NS3-4A protein) (P26664 1658-1711 partner): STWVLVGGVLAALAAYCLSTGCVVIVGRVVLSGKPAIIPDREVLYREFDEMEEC

Row | SMILES | IC50
1 | C=C[C@@H]1C[C@]1(NC(=O)[C@@H]1C[C@@]2(CN1C(=O)[C@@H](NC(=O)[C@@H](NC(=O)[C@@H]1CCCN1C(C)C)C1CCCCC1)C(C)(C)C)C(C)(C)C21CCC1)C(=O)NS(=O)(=O)N(C)CC [Compound 91, (5R,8S)-7-[(2S)-2-{[(2S)-2-cyclohexyl-2-({[(2S)-1-isopropylpyrrolidin-2-yl]carbonyl}amino)acetyl]amino}-3,3-dimethylbutanoyl]-N-[(1R,2S)-1-({[ethyl(methyl)amino]sulfonyl}carbamoyl)-2-vinylcyclopropyl]-10,10-dimethyl-7-azadispiro[3.0.4.1]decane-8-carboxamide] | 5 nM
2 | CC[C@@H]1C[C@]1(NC(=O)[C@@H]1C[C@@]2(CN1C(=O)[C@@H](NC(=O)[C@@H](NC(=O)[C@@H]1CCCN1C(C)C)C1CCCCC1)C(C)(C)C)C(C)(C)C21CCC1)C(=O)NS(=O)(=O)N(CC)CC [Compound 117, (5R,8S)-7-[(2S)-2-{[(2S)-2-cyclohexyl-2-({[(2S)-1-isopropylpyrrolidin-2-yl]carbonyl}amino)acetyl]amino}-3,3-dimethylbutanoyl]-N-[(1R,2R)-1-{[(diethylamino)sulfonyl]carbamoyl}-2-ethylcyclopropyl]-10,10-dimethyl-7-azadispiro[3.0.4.1]decane-8-carboxamide] | 5.5 nM
3 | C=C[C@@H]1C[C@]1(NC(=O)[C@@H]1C[C@@]2(CN1C(=O)[C@@H](NC(=O)[C@@H](NC(=O)[C@@H]1CCCN1CC)C1(C)CCCCC1)C1(C)CCOCC1)C(C)(C)C21CCC1)C(=O)NS(=O)(=O)N(CC)CC [Compound 153, (5R,8S)-N-[(1R,2S)-1-{[(diethylamino)sulfonyl]carbamoyl}-2-vinylcyclopropyl]-7-[(2S)-2-{[(2S)-2-({[(2S)-1-ethylpyrrolidin-2-yl]carbonyl}amino)-2-(1-methylcyclohexyl)acetyl]amino}-2-(4-methyltetrahydro-2H-pyran-4-yl)acetyl]-10,10-dimethyl-7-azadispiro[3.0.4.1]decane-8-carboxamide] | 1.8 nM
4 | C=C[C@@H]1C[C@]1(NC(=O)[C@@H]1C[C@@]2(CN1C(=O)[C@@H](NC(=O)CC1(CC(N)=O)CCCCC1)C(C)(C)C)C(C)(C)C21CCC1)C(=O)NS(=O)(=O)N1CCCC1 [Compound 60, (5R,8S)-7-[(2S)-2-({[1-(2-amino-2-oxoethyl)cyclohexyl]acetyl}amino)-3,3-dimethylbutanoyl]-10,10-dimethyl-N-{(1R,2S)-1-[(pyrrolidin-1-ylsulfonyl)carbamoyl]-2-vinylcyclopropyl}-7-azadispiro[3.0.4.1]decane-8-carboxamide] | 1250 nM
5 | C=C[C@@H]1C[C@]1(NC(=O)[C@@H]1C[C@@]2(CN1C(=O)[C@@H](NC(=O)[C@@H](NC(=O)c1cnccn1)C1CCCCC1)C(C)(C)C)C(C)(C)C21CCC1)C(=O)NS(=O)(=O)N(C)CC [Compound 167, (5R,8S)-7-[(2S)-2-({(2S)-2-cyclohexyl-2-[(pyrazin-2-ylcarbonyl)amino]acetyl}amino)-3,3-dimethylbutanoyl]-N-[(1R,2S)-1-({[ethyl(methyl)amino]sulfonyl}carbamoyl)-2-vinylcyclopropyl]-10,10-dimethyl-7-azadispiro[3.0.4.1]decane-8-carboxamide] | 0.6 nM
6 | C=C[C@@H]1C[C@]1(NC(=O)[C@@H]1C[C@@]2(CN1C(=O)[C@@H](NC(=O)[C@@H](NC(=O)Cn1nc(C)cc1C)C1CCCCC1)C(C)(C)C)C(C)(C)C21CCC1)C(=O)NS(=O)(=O)N1CCCC1 [Compound 186, (5R,8S)-7-{(2S)-2-[(cyclohexyl{[(3,5-dimethyl-1H-pyrazol-1-yl)acetyl]amino}acetyl)amino]-3,3-dimethylbutanoyl}-10,10-dimethyl-N-{(1R,2S)-1-[(pyrrolidin-1-ylsulfonyl)carbamoyl]-2-vinylcyclopropyl}-7-azadispiro[3.0.4.1]decane-8-carboxamide] | 65 nM
7 | C=C[C@@H]1C[C@]1(NC(=O)[C@@H]1C[C@@]2(CN1C(=O)[C@@H](NC(=O)[C@@H](NC(=O)c1cnccn1)C1CCCCC1)C1CCOCC1)C(C)(C)C21CCC1)C(=O)NS(=O)(=O)N1CCCC1 [Compound 42, (5R,8S)-7-[(2S)-2-({(2S)-2-cyclohexyl-2-[(pyrazin-2-ylcarbonyl)amino]acetyl}amino)-2-(tetrahydro-2H-pyran-4-yl)acetyl]-10,10-dimethyl-N-{(1R,2S)-1-[(pyrrolidin-1-ylsulfonyl)carbamoyl]-2-vinylcyclopropyl}-7-azadispiro[3.0.4.1]decane-8-carboxamide] | 40 nM
8 | C=C[C@@H]1C[C@]1(NC(=O)[C@@H]1C[C@@]2(CN1C(=O)[C@@H](NC(=O)[C@@H](NC(=O)c1cc(C(C)(C)C)nn1C)C1CCCCC1)C(C)(C)C)C(C)(C)C21CCC1)C(=O)NS(=O)(=O)N1CCCC1 [Compound 181, (5R,8S)-7-[(2S)-2-{[{[(3-tert-butyl-1-methyl-1H-pyrazol-5-yl)carbonyl]amino}(cyclohexyl)acetyl]amino}-3,3-dimethylbutanoyl]-10,10-dimethyl-N-{(1R,2S)-1-[(pyrrolidin-1-ylsulfonyl)carbamoyl]-2-vinylcyclopropyl}-7-azadispiro[3.0.4.1]decane-8-carboxamide] | 90 nM
9 | C=C[C@@H]1C[C@]1(NC(=O)[C@@H]1C[C@@]2(CN1C(=O)[C@@H](NC(=O)[C@@H](NC(=O)OC(C)(C)C)C(C)(C)C)C(C)(C)C)C(C)(C)C21CCC1)C(=O)NS(=O)(=O)N1CCOCC1 [Compound 5, tert-butyl [(1S)-1-{[(1S)-1-{[(5R,8S)-10,10-dimethyl-8-({(1R,2S)-1-[(morpholin-4-ylsulfonyl)carbamoyl]-2-vinylcyclopropyl}carbamoyl)-7-azadispiro[3.0.4.1]dec-7-yl]carbonyl}-2,2-dimethylpropyl]carbamoyl}-2,2-dimethylpropyl]carbamate] | 6650 nM
10 | C=C[C@@H]1C[C@]1(NC(=O)[C@@H]1C[C@@]2(CN1C(=O)[C@@H](NC(=O)[C@@H](NC(=O)[C@H]1CCN1C(C)C)C1CCCCC1)C(C)(C)C)C(C)(C)C21CCC1)C(=O)NS(=O)(=O)N1CCCC1 [Compound 18, (5R,8S)-7-[(2S)-2-{[(2S)-2-cyclohexyl-2-({[(2R)-1-isopropylazetidin-2-yl]carbonyl}amino)acetyl]amino}-3,3-dimethylbutanoyl]-10,10-dimethyl-N-{(1R,2S)-1-[(pyrrolidin-1-ylsulfonyl)carbamoyl]-2-vinylcyclopropyl}-7-azadispiro[3.0.4.1]decane-8-carboxamide] | 10 nM
11 | C=C[C@@H]1C[C@]1(NC(=O)[C@@H]1C[C@@]2(CN1C(=O)[C@@H](NC(=O)[C@@H](NC(=O)c1cnon1)C1CCCCC1)C(C)(C)C)C(C)(C)C21CCC1)C(=O)NS(=O)(=O)N1CCCC1 [Compound 201, (5R,8S)-7-[(2S)-2-({cyclohexyl[(1,2,5-oxadiazol-3-ylcarbonyl)amino]acetyl}amino)-3,3-dimethylbutanoyl]-10,10-dimethyl-N-{(1R,2S)-1-[(pyrrolidin-1-ylsulfonyl)carbamoyl]-2-vinylcyclopropyl}-7-azadispiro[3.0.4.1]decane-8-carboxamide] | 35 nM
12 | C=C[C@@H]1C[C@]1(NC(=O)[C@@H]1C[C@@]2(CN1C(=O)[C@@H](NC(=O)[C@@H](NC(=O)[C@H]1CCCCN1C(C)C)C1CCCCC1)C(C)(C)C)C(C)(C)C21CCC1)C(=O)NS(=O)(=O)N1CCCCC1 [Compound 115, (5R,8S)-7-[(2S)-2-{[(2S)-2-cyclohexyl-2-({[(2R)-1-isopropylpiperidin-2-yl]carbonyl}amino)acetyl]amino}-3,3-dimethylbutanoyl]-10,10-dimethyl-N-{(1R,2S)-1-[(piperidin-1-ylsulfonyl)carbamoyl]-2-vinylcyclopropyl}-7-azadispiro[3.0.4.1]decane-8-carboxamide] | 4.5 nM
13 | C=C[C@@H]1C[C@]1(NC(=O)[C@@H]1C[C@@]2(CN1C(=O)[C@@H](NC(=O)[C@@H](NC(=O)c1cnc3ccccc3c1)C1CCCCC1)C(C)(C)C)C(C)(C)C21CCC1)C(=O)NS(=O)(=O)N1CCCC1 [Compound 196, (5R,8S)-7-[(2S)-2-({cyclohexyl[(quinolin-3-ylcarbonyl)amino]acetyl}amino)-3,3-dimethylbutanoyl]-10,10-dimethyl-N-{(1R,2S)-1-[(pyrrolidin-1-ylsulfonyl)carbamoyl]-2-vinylcyclopropyl}-7-azadispiro[3.0.4.1]decane-8-carboxamide] | 20 nM
14 | C=C[C@@H]1C[C@]1(NC(=O)[C@@H]1C[C@@]2(CN1C(=O)[C@@H](NC(=O)[C@@H](NC(=O)[C@@H]1CCCN1C(C)C)C1CCCC1)C(C)(C)C)C(C)(C)C21CCC1)C(=O)NS(=O)(=O)N1CCCC1 [Compound 59, (5R,8S)-7-[(2S)-2-{[(2S)-2-cyclopentyl-2-({[(2S)-1-isopropylpyrrolidin-2-yl]carbonyl}amino)acetyl]amino}-3,3-dimethylbutanoyl]-10,10-dimethyl-N-{(1R,2S)-1-[(pyrrolidin-1-ylsulfonyl)carbamoyl]-2-vinylcyclopropyl}-7-azadispiro[3.0.4.1]decane-8-carboxamide] | 3.5 nM
15 | C=C[C@@H]1C[C@]1(NC(=O)[C@@H]1C[C@@]2(CN1C(=O)[C@@H](NC(=O)[C@@H](NC(=O)[C@@H]1CCCCN1C(C)C)C1CCCCC1)C(C)(C)C)C(C)(C)C21CCC1)C(=O)NS(=O)(=O)N(C)C(C)C [Compound 108, (5R,8S)-7-[(2S)-2-{[(2S)-2-cyclohexyl-2-({[(2S)-1-isopropylpiperidin-2-yl]carbonyl}amino)acetyl]amino}-3,3-dimethylbutanoyl]-N-[(1R,2S)-1-({[isopropyl(methyl)amino]sulfonyl}carbamoyl)-2-vinylcyclopropyl]-10,10-dimethyl-7-azadispiro[3.0.4.1]decane-8-carboxamide] | 6 nM

— patent US8613914B2, “Peptidomimetic sulfamide compounds and antiviral uses thereof” (Novartis AG, priority 2009, dated 2013)
